Common to all, as to type: cell-based
Assay [1] concerns the target T1, S1PR3 (Homo sapiens, UniProt Q99500).
T1 construct: expressed in transfected cells
Briefly: β-arrestin recruitment, PathHunter CHO-K1-S1PR3 cells. The conditions noted are these: mean ± SD. In general terms: Recruitment of arrestin is a read-out of receptor activation apart from second messengers.

Assay [2] addresses T2, S1PR4 (Homo sapiens, UniProt O95977).
T2 construct: expressed in transfected cells; host or cells: 293T
T2 sequence (O95977 1-384): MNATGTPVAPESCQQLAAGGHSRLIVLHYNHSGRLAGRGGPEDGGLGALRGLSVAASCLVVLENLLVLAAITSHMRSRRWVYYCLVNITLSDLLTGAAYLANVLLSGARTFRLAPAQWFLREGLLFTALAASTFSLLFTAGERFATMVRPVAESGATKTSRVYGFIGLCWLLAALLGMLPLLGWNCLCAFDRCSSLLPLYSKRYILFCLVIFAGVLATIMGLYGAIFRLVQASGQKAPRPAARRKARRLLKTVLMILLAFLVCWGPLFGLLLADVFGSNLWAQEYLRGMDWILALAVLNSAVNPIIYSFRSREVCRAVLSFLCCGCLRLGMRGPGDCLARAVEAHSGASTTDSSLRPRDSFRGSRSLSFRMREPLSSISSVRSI
The assay can be described thus: S1PR4 internalization and recovery test in S1PR4-293T cells. The conditions noted are these: 1 µM, 37 °C, 1.5 hours; detected immediately, 5 hours or 20 hours after treatment. The protocol:
Therefore, the recovery degree of S1PR4 after internalization caused by Compound 30 was evaluated, and the recovery effect following receptor internalization caused by Compound 30 was assessed in cells with high S1PR4 expression.

Assay [3] deals with T3, hS1P4-R-79C (Homo sapiens, UniProt O95977, R79C).
T3 construct: expressed in transfected cells; host or cells: CHO
T3 sequence (O95977 1-384 R79C): T2 sequence (O95977 1-384) with R79C
The assay can be described thus: Tango β-arrestin recruitment luciferase assay, Tango-hS1P4-R-79C-CHO (S1PR4 mutant). The conditions noted are these: 20 h drug treatment. An excerpt:
The Tango assay detects ligand-dependent GPCR activity through the interaction between β-arrestin and GPCRs. […] The NTEV fragment and the tetracycline transactivator (tTA), an artificial transcription factor, are fused at the C-terminus of the GPCR, while the CTEV fragment is fused to human β-arrestin 2. To enhance the stability of the interaction between GPCR and β-arrestin, a short sequence from the C-terminus of the human arginine vasopressin receptor 2 (V2 tail) is inserted between the GPCR and NTEV. The V2 tail contains multiple GRK phosphorylation sites, which strengthen β-arrestin binding upon phosphorylation. The CTEV fragment carries the stabile point mutation S219P and is truncated at residue 221 to remove the autoinhibitory C-terminal tail. Meanwhile, β-arrestin 2 is truncated to lack the entire C-terminal tail (residues 383-410 deleted). This truncation confers robust stimulus-dependent receptor desensitization, thereby improving detection sensitivity compared with wild-type β-arrestin 2. The UAS reporter construct consists of upstream activating sequence (UAS) elements, a minimal CMV promoter, and a tTA-dependent luciferase reporter gene. Therefore, constructing Tango cells requires the co-transfection of the above three plasmids into host cells. Upon GPCR activation and β-arrestin recruitment, the TEV enzyme at the β-arrestin terminus cleaves tTA from the GPCR C-terminus. The released tTA initiates tTA-dependent luciferase transcription, and compound activity is ultimately determined by measuring luminescence intensity.
• 1) Tango cell line from was digested from the culture dish respectively. After cell counting, the cells were plated at a density of 10,000 cells per well with […] into a white opaque 96-well plate (add 60 µL D'Hanks to the surrounding wells), and incubated overnight (20 h) in a 5% CO2 incubator at 37°C. The cell density will reach approximately 90% the next day. • 2) After 20 h, 30 µL of serially diluted compound solution was added to each well. The control group was supplemented with 30 µL F12K complete medium. Each group had three replicate wells. • 3) Samples were collected after 20 h of drug treatment.
(All compounds were tested at a final concentration of 45 µM, with 9 serial dilutions at 5-fold intervals. 1 µM BAF-312 was used as the positive control for S1PR1, and 25 µM BAF-312 was used as the positive control for S1PR4.

Residue numbers refer to the chain shown, from its start. Like-named read-outs stand apart in the source and are kept apart here.

T1 sequence (Q99500 whole entry, species assumed): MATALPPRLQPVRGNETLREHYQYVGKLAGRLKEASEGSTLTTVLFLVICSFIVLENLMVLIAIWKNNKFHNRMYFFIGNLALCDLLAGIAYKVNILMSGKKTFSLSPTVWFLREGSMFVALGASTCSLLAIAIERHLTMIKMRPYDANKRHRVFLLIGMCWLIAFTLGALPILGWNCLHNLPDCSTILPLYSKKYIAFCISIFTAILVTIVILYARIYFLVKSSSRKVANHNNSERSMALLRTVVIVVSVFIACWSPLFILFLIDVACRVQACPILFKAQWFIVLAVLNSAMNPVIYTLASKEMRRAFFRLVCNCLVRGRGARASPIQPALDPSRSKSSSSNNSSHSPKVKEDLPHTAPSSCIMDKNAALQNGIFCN

The term EC50 denotes the concentration that produces a half-maximal response. Take `CCc1cc(/C(C)=N/OCc2ccc(-c3cnc(F)cn3)c(C)c2)ccc1CN1CC[C@H](C(=O)O)C1` [Compound 67, (S, E)-1-(2-ethyl-4-(1-(((4-(5-fluoropyrazin-2-yl)-3-methylbenzyl)oxy)imino)ethyl)benzyl)pyrrolidine-3-carboxylic acid]: the EC50 in assay [1] (read-out: EC50) was more than 10 µM.
With `CCc1cc(/C(C)=N/OCc2ccc(-c3ccccc3)c(C)c2)ccc1CN1CC[C@H](C(=O)O)C1` [Compound 30], the EC50 result in assay [1] is “no agonist activity”; in assay [1] (read-out: EC50), more than 10 µM; in assay [3], 0.015 µM. Further, the “S1PR4 internalization (expression of S1PR4 receptor on the cell surface)” value in assay [2] is on record as “sustained internalization of S1PR4 for up to 20 hours”.

For the origin of these results see EP4790048A1, “S1PR4 REGULATOR COMPOUND FOR AUTOIMMUNE DISEASE TREATMENT AND APPLICATION THEREOF” (Shengyuan Zetong (Shanghai) Pharmaceutical Co., Ltd, priority 2023, dated 2025).
